Like-named read-outs stand apart in the source and are kept apart here.
How the values were obtained:
[1] = system: SMN2 minigene (full length SMN2 minigene mRNA containing SMN2 exon 7); test: SMN2 minigene mRNA splicing RT-qPCR assay in cultured cells; assay type: cell-based, human; conditions: Homo sapiens, HEK293-H, read-out: EC1.5x for production of full length SMN2 mRNA
Outline: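 Read-out: full-length (exon 7-included) SMN2 minigene mRNA by multiplex RT-qPCR with GAPDH, efficiency-corrected (1+E)^−Ct, GAPDH-normalized and divided by vehicle. Stably transfected HEK293H cells, 24 h compound exposure, duplicates per concentration. Value is EC1.5x, reported as star ranges.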

Smn protein = Smn protein assay in cultured cells (SMN HTRF); assay type: cell-based, human; conditions: 48 hours; for EC1.5x (concentration giving 1.5-fold Smn protein increase): SMA Type 1 patient fibroblast cells (GM03813), 7-point concentration curve, SMN HTRF, concentration producing 1.5 times Smn protein vs DMSO vehicle control, read-out: EC1.5x for Smn protein expression; for maximum fold (Fold) increase of Smn protein: SMA patient fibroblast cells, 7-point concentration data, fold increase relative to vehicle control (SMN HTRF)
Outline: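 Lysates in RIPA with protease inhibitors are incubated overnight at room temperature with HTRF anti-SMN antibodies. EC1.5x is derived from fold increase in ΔF over vehicle.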

[2] = HEK293H cells stably transfected with SMN2-A minigene, 24 hours, 7-point concentration curve, 1.5-fold relative to vehicle-treated cells

Structure (SMILES)	melting point	EC (1.5-fold) [1, 2]	EC1.5x (concentration giving 1.5-fold Smn protein increase) (Smn protein)	maximum fold (Fold) increase of Smn protein (Smn protein)	EC (1.5-fold) ([1]; 24 h)
Cc1ccn2nc(-c3cc4ccc(N5CCNC(C)(C)C5)cc4oc3=O)cc2c1 [Compound 305, 7-(3,3-dimethylpiperazin-1-yl)-3-(5-methylpyrazolo[1,5-a]pyridin-2-yl)-2H-chromen-2-one]	203 to 205 °C	0.3 to 1 µM		** (fold increase between >1.2 and ≤1.35)	
O=c1oc2cc(N3CCNCC3)cc(F)c2cc1-c1cn2cccc(Cl)c2n1 [Compound 392, 3-(8-chloroimidazo[1,2-a]pyridin-2-yl)-5-fluoro-7-(piperazin-1-yl)-2H-chromen-2-one]	241 to 250 °C	0.3 to 1 µM		** (fold increase between >1.2 and ≤1.35)	
Cc1csc(-c2cc3ccc(N4CCN[C@@H](C)C4)cc3oc2=O)n1 [Cpd 283, 7-[(3S)-3-methylpiperazin-1-yl]-3-(4-methyl-1,3-thiazol-2-yl)-2H-chromen-2-one]	194 to 199 °C			* (maximum fold increase of ≤1.2)	0.3 to 1 µM
O=c1oc2cc(N3CCN(CCO)CC3)ccc2cc1-c1cc2ccccn2n1 [Compound 190, 7-[4-(2-hydroxyethyl)piperazin-1-yl]-3-(pyrazolo[1,5-a]pyridin-2-yl)-2H-chromen-2-one]	201 to 205 °C	1 to 3 µM		** (fold increase between >1.2 and ≤1.35)	
C[C@@H]1CN(c2ccc3cc(-c4cc5cnccc5s4)c(=O)oc3c2)C[C@H](C)N1 [Cpd 630, 7-[(3R,5S)-3,5-dimethylpiperazin-1-yl]-3-(thieno[3,2-c]pyridin-2-yl)-2H-chromen-2-one]	163 to 165 °C	0.3 to 1 µM		* (maximum fold increase of ≤1.2)	
CN1CCN(c2ccc3cc(-c4nc(-c5ccccc5)cs4)c(=O)oc3c2)CC1 [Compound 45, 7-(4-methylpiperazin-1-yl)-3-(4-phenyl-1,3-thiazol-2-yl)-2H-chromen-2-one]	205 to 210 °C	3 to 30 µM		* (maximum fold increase of ≤1.2)	
O=c1oc2cc(N3CCNCC3)ccc2cc1-c1cc2ccccc2o1 [Compound 602, 3-(1-benzofuran-2-yl)-7-(piperazin-1-yl)-2H-chromen-2-one]	208 to 211 °C	0.3 to 1 µM		* (maximum fold increase of ≤1.2)	
CC(C)N1CCN(c2ccc3cc(-c4nc5ccccc5s4)c(=O)oc3c2)CC1 [Compound 15, 3-(1,3-benzothiazol-2-yl)-7-[4-(propan-2-yl)piperazin-1-yl]-2H-chromen-2-one]	238 to 246 °C	3 to 30 µM		* (maximum fold increase of ≤1.2)	
Cc1csc(-c2cc3ccc(N4CCNCC4)cc3oc2=O)c1 [Compound 318, 3-(4-methylthiophen-2-yl)-7-(piperazin-1-yl)-2H-chromen-2-one]	218 to 220 °C			* (maximum fold increase of ≤1.2)	1 to 3 µM
C[C@@H]1CN(c2ccc3cc(-c4ccc5c(c4)OCO5)c(=O)oc3c2)C[C@H](C)N1 [Compound 487, 3-(1,3-benzodioxol-5-yl)-7-[(3R,5S)-3,5-dimethylpiperazin-1-yl]-2H-chromen-2-one]	123 to 125 °C	3 to 30 µM		* (maximum fold increase of ≤1.2)	

Further lines, with some results ahead:

melting point	Structure (SMILES)	EC (1.5-fold) [1, 2]	EC1.5x (concentration giving 1.5-fold Smn protein increase) (Smn protein)	maximum fold (Fold) increase of Smn protein (Smn protein)	EC (1.5-fold) ([1]; 24 h)
153 to 156 °C	Cc1cn2cc(-c3cc4ccc(N5CCN(C(C)C)[C@@H](C)C5)cc4oc3=O)cc2c(C)n1 [Compound 768, 3-(1,3-dimethylpyrrolo[1,2-a]pyrazin-7-yl)-7-[(3S)-3-methyl-4-(propan-2-yl)piperazin-1-yl]-2H-chromen-2-one]	< 0.1 µM	< 300 nM	**** (fold increase between >1.5 and ≤1.65)	
182 to 184 °C	CN(CCO)Cc1ccc2cc(-c3nc4ccccc4s3)c(=O)oc2c1 [Compound 79, 3-(1,3-benzothiazol-2-yl)-7-{[(2-hydroxyethyl)(methyl)amino]methyl}-2H-chromen-2-one]	1 to 3 µM		*** (fold increase between >1.35 and ≤1.5)	
184 to 187 °C	Cc1cn2cc(-c3cc4ccc(CCCNC(C)C)cc4oc3=O)nc2c(C)n1 [Compound 858, 3-(6,8-dimethylimidazo[1,2-a]pyrazin-2-yl)-7-[3-(propan-2-ylamino)propyl]-2H-chromen-2-one]	< 0.1 µM	< 300 nM	**** (fold increase between >1.5 and ≤1.65)	
210 to 212 °C	Cc1cn2cc(-c3cc4ccc(N5C[C@@H](C)N[C@@H](C)C5)cc4oc3=O)nc2s1 [Compound 152, 7-[(3R,5S)-3,5-dimethylpiperazin-1-yl]-3-(2-methylimidazo[2,1-b][1,3]thiazol-6-yl)-2H-chromen-2-one]	< 0.1 µM	1000 to 3000 nM	*** (fold increase between >1.35 and ≤1.5)	
265 to 271 °C	C[C@@H]1CN(c2ccc3cc(-c4cn5cc(Cl)cnc5n4)c(=O)oc3c2)C[C@H](C)N1 [Compound 349, 3-(6-chloroimidazo[1,2-a]pyrimidin-2-yl)-7-[(3R,5S)-3,5-dimethylpiperazin-1-yl]-2H-chromen-2-one]	1 to 3 µM		* (maximum fold increase of ≤1.2)	
262 to 269 °C	Cc1cn2cc(-c3cc4ccc(N5CCC(N)CC5)cc4oc3=O)nc2c(C)n1 [Compound 919, 7-(4-aminopiperidin-1-yl)-3-(6,8-dimethylimidazo[1,2-a]pyrazin-2-yl)-2H-chromen-2-one]	< 0.1 µM	< 300 nM	**** (fold increase between >1.5 and ≤1.65)	
133 to 135 °C	CCN1C[C@@H]2C[C@H]1CN2c1ccc2cc(-c3cn4cc(C)nc(C)c4n3)c(=O)oc2c1 [Compound 793, 3-(6,8-dimethylimidazo[1,2-a]pyrazin-2-yl)-7-[(1S,4S)-5-ethyl-2,5-diazabicyclo[2.2.1]hept-2-yl]-2H-chromen-2-one]	< 0.1 µM	< 300 nM	**** (fold increase between >1.5 and ≤1.65)	
256 to 264 °C	Cc1cn2cc(-c3cc4ccc(N5C[C@H]6CN(C)C[C@H]6C5)cc4oc3=O)nc2c(C)n1 [Compound 688, 3-(6,8-dimethylimidazo[1,2-a]pyrazin-2-yl)-7-[(3aR,6aS)-5-methylhexahydropyrrolo[3,4-c]pyrrol-2(1H)-yl]-2H-chromen-2-one]	< 0.1 µM	< 300 nM	***** (fold increase >1.65)	
215 to 217 °C	CN1CCC(N(C)c2ccc3cc(-c4cn5cccnc5n4)c(=O)oc3c2)C1 (stereo not drawn) [Compound 181, 3-(imidazo[1,2-a]pyrimidin-2-yl)-7-[methyl(1-methylpyrrolidin-3-yl)amino]-2H-chromen-2-one]	< 0.1 µM		** (fold increase between >1.2 and ≤1.35)	
245 to 247 °C	C[C@@H]1CN[C@@H](C)CN1c1ccc2cc(-c3cn4cc(Cl)ccc4n3)c(=O)oc2c1 [Compound 93, 3-(6-chloroimidazo[1,2-a]pyridin-2-yl)-7-[(2R,5S)-2,5-dimethylpiperazin-1-yl]-2H-chromen-2-one]	1 to 3 µM		** (fold increase between >1.2 and ≤1.35)	
204 to 208 °C	CNCCc1ccc2cc(-c3cn4cc(C)nc(C)c4n3)c(=O)oc2c1 [Compound 911, 3-(6,8-dimethylimidazo[1,2-a]pyrazin-2-yl)-7-[2-(methylamino)ethyl]-2H-chromen-2-one]	< 0.1 µM	< 300 nM	***** (fold increase >1.65)	
258 to 260 °C	O=c1oc2cc(N3CCNCC3)ccc2cc1-c1cn2ccncc2n1 [Cpd 456, 3-(imidazo[1,2-a]pyrazin-2-yl)-7-(piperazin-1-yl)-2H-chromen-2-one]	< 0.1 µM	1000 to 3000 nM	**** (fold increase between >1.5 and ≤1.65)	
244 to 247 °C	C[C@@H]1CN(c2ccc3cc(-c4cn5cccc(Cl)c5n4)c(=O)oc3c2)C[C@H](C)N1C [Compound 137, 3-(8-chloroimidazo[1,2-a]pyridin-2-yl)-7-[(3R,5S)-3,4,5-trimethylpiperazin-1-yl]-2H-chromen-2-one]	1 to 3 µM		*** (fold increase between >1.35 and ≤1.5)	
195 to 198 °C	Cc1cn2cc(-c3cc4ccc(N5CC[C@H](N(C)C)C5)cc4oc3=O)cc2c(C)n1 [Compound 697, 7-[(3S)-3-(dimethylamino)pyrrolidin-1-yl]-3-(1,3-dimethylpyrrolo[1,2-a]pyrazin-7-yl)-2H-chromen-2-one]	< 0.1 µM	300 to 1000 nM	*** (fold increase between >1.35 and ≤1.5)	

— USRE47689E1, “Compounds for treating spinal muscular atrophy” (PTC Therapeutics, Inc., priority 2011, dated 2019)
